Values of other authors as cited in patent US20140005605A1, “USE OF QUORUM SENSING INHIBITORS AND BIOFILM DISPERSING AGENTS FOR CONTROLLING BIOFILM-ASSOCIATED IMPLANTABLE MEDICAL DEVICE RELATED INFECTIONS” (priority 2012, published 2014).

Tests used:
[1] = tested on: biofilms formed by Pseudomonas aeruginosa
[2] = tested on: biofilms formed by Staphylococcus aureus
Pseudomonas aeruginosa = conditions: mice treated with the QSI; promoted clearance by the murine immune system

CCCCCCC/C=C\C(=O)O [cis-2-decanoic acid]
effectiveness against biofilms [1]: effective | effectiveness against biofilms [2]: effective

O=[N+]([O-])c1cc[n+]([O-])cc1 [4-nitro-pyridine-N-oxide]
effectiveness against biofilms [1]: effective | effectiveness against biofilms [2]: effective

O=C1C=C(Br)/C(=C/Br)O1 [furanone C-30]
biofilm formation (Pseudomonas aeruginosa): inhibited biofilm formation
